Test system in the first data set: not given
Experiment: not given
Details: not given
As to `Cn1cc(C2CCN(CCCCNC(=O)c3ccc(-c4ccc(C(F)(F)F)cc4)cc3)CC2)c2ccccc21` [Example 14, 4′-Trifluoromethyl-biphenyl-4-carboxylic acid {4-[4-(1−methyl-1H-indol-3-yl)-piperidin-1-yl]-butyl}-amide], the melting point – broadly, the temperature, or range, at which the solid turns liquid – is 205 to 206 °C.

In turn, `COc1cc(C(C)C)ccc1C1CCN(CCCCNC(=O)c2ccc(NC(=O)c3ccc(Cl)cc3)cc2)CC1` [Example 5, 4-(4-chloro-benzoylamino)-N-{4-[4-(4-isopropyl-2-methoxy-phenyl)-piperidin-1-yl]-butyl}-benzamide] had a melting point of 241 °C.

`CCOc1cc(C)ccc1NC1CCN(CCCCNC(=O)c2ccc(-c3ccc(C(F)(F)F)cc3)cc2)CC1` [Example 19, 4′-Trifluoromethyl-biphenyl-4-carboxylic acid {4-[4-(2-ethoxy-4-methyl-phenylamino)-piperidin-1-yl]-butyl}-amide] came in with a melting point of 162 °C.

As for `O=C(NCCCCN1CCC(c2csc3ccccc23)CC1)c1ccc(-c2ccc(C(F)(F)F)cc2)cc1` [Example 16, 4′-Trifluoromethyl-biphenyl-4-carboxylic acid [4-(4-benzo[b]thiophen-3-yl-piperidin-1-yl)-butyl]-amide], the melting point came to 264 °C.

With `CSc1ccccc1C1CCN(CCCCNC(=O)c2ccc(-c3ccc(C(F)(F)F)cc3)cc2)CC1` [Example 13, 4′-Trifluoromethyl-biphenyl-4-carboxylic acid {4[4-(2-methylsulfanyl-phenyl)-piperidin-1-yl]-butyl}-amide], the melting point lay in the range of 191 to 192 °C.

Take `O=C(NCCCCN1CCC(c2ccc3c(c2)OCO3)CC1)c1ccc(NC(=O)c2ccc(Cl)cc2)cc1` [Example 8, 4-(4-chloro-benzoylamino)-N-[4-(4-benzo[1,3]dioxol-5-yl-piperidin-1-yl]-butyl}-benzamide]: the melting point lay in the range of 238 to 248 °C.

`O=C(NCCCCN1CCC(c2ccc3ccccc3c2)CC1)c1ccc(NC(=O)c2ccc(Cl)cc2)cc1` [Example 9, 4-(4-chloro-benzoylamino)-N-[4-(4-naphthalen-2-yl-piperidin-1-yl]-butyl}-benzamide] came in with a melting point of 270 °C.

The compound `CCOc1cc(C)ccc1C1CCN(CCCCNC(=O)c2ccc3oc(-c4ccc(C(F)(F)F)cc4)cc3c2)CC1` [Example 29, 2-(4-Trifluoromethyl-phenyl)-benzofuran-5-carboxylic Acid {4-[4-(2-ethoxy-4-methyl-phenyl)-piperidin-1-yl]-butyl}-amide] displayed a melting point of 200 °C.

`CCOc1cc(C)ccc1C1CCN(CCCCC(=O)Nc2ccc(-c3ccc(C(F)(F)F)cc3)cc2)CC1` [Example 24, 5-[4-(2-Ethoxy-4-methyl-phenyl)-piperidin-1-yl]-pentanoic acid (4′-trifluoromethyl-biphenyl-4-yl)-amide] displayed a melting point of 178 °C.

Turning to `O=C(NCCCCN1CCC(c2cccc3ccccc23)CC1)c1ccc(NC(=O)c2ccc(Cl)cc2)cc1` [Example 11, 4-(4-chloro-benzoylamino)-N-[4-(4-naphthalen-1-yl-piperidin-1-yl]-butyl}-benzamide], the melting point is 264 °C.

As to `CCOc1cc(C(C)C)ccc1C1CCN(CCCCNC(=O)c2ccc(NC(=O)c3ccc(Cl)cc3)cc2)CC1` [Example 6, 4-(4-chloro-benzoylamino)-N-{4-[4-(2-ethoxy-4-isopropyl-phenyl)-piperidin-1-yl]-butyl}-benzamide], the melting point stood at 242 °C.

For the compound `O=C(NCCCCN1CCC(c2ccc3c(c2)CCCC3)CC1)c1ccc(NC(=O)c2ccc(Cl)cc2)cc1` [Example 10, 4-(4-chloro-benzoylamino)-N-{4-[4-(5,6,7,8-tetrahydro-naphthalen-2-yl)-piperidin-1-yl]-butyl}-benzamide], the melting point is 285 °C.

Take `CCOc1cc(C)ccc1C1CCN(CCCCNC(=O)c2ccc(OCc3ccc(C(F)(F)F)cc3)cc2)CC1` [Example 34, N-{4-[4-(2-Ethoxy-4-methyl-phenyl)-piperidin-1-yl]-butyl}4-(4-trifluoromethyl-benzyloxy)-benzamide]: the melting point was in the range of 180 to 182 °C.

As for `Cn1cc(C2CCN(CCCCNC(=O)c3ccc(-c4ccc(C#N)cc4)cc3)CC2)c2ccccc21` [Example 40, 4′-Cyano-biphenyl-4-carboxylic acid {4-[4-(1-methyl-1H-indol-3-yl)-piperidin-1-yl]-butyl}-amide], the melting point was found to be 180 °C.

As for `CCOc1cc(C)ccc1C1CCN(CCCCNC(=O)c2ccc3oc(-c4ccc(Cl)cc4)cc3c2)CC1` [Example 30, 2-(4-Chloro-phenyl)-benzofuran-5-carboxylic acid {4-[4-(2-ethoxy-4-methylphenyl)-piperidin-1-yl]-butyl}-amide], the melting point fell in the range of 145 to 158 °C.

The compound `CCOc1cc(C)ccc1C1CCN(CCCCNC(=O)c2ccc(C=Cc3ccc(C(F)(F)F)cc3)cc2)CC1` [Example 33, N-{4-[4-(2-Ethoxy-4-methyl-phenyl)-piperidin-1-yl]-butyl}-4-[2-(4-trifluoromethylphenyl)-vinyl]-benzamide] had a melting point of 210 °C.

Regarding `CCOc1cc(C)ccc1C1CCN(CCCCNC(=O)c2ccc3c(c2)cc(-c2ccc(Cl)cc2)n3C)CC1` [Example 28, 2-(4-Chloro-phenyl)-1-methyl-1H-indole-5-carboxylic Acid {4-[4-(2-ethoxy-4-methyl-phenyl)-piperidin-1-yl]-butyl}-amide], the melting point lay in the range of 174 to 175 °C.

The compound `COc1cc(C)ccc1N1CCN(CCCCNC(=O)c2ccc(NC(=O)c3ccc(Cl)cc3)cc2)CC1.Cl` (hydrate or solvate) had a melting point of 227 °C.

`CCOc1cc(CC)ccc1C1CCN(CCCCNC(=O)c2ccc(NC(=O)c3ccc(Cl)cc3)cc2)CC1` [Example 3, 4-(4-chloro-benzoylamino)-N-{4-[4-(2-ethoxy-4-ethyl-phenyl)-piperidin-1-yl]-butyl}-benzamide] showed a melting point of 250 °C.

In the case of `CCc1ccc(C2CCN(CCCCNC(=O)c3ccc(NC(=O)c4ccc(Cl)cc4)cc3)CC2)c(OC)c1` [Example 4, 4-(4-chloro-benzoylamino)-N-{4-[4-(4-ethyl-2-methoxy-phenyl)-piperidin-1-yl]-butyl}-benzamide], the melting point came out at 235 °C.

In the case of `COc1cc(C(C)C)ccc1C1CCN(CCCCNC(=O)c2sc(-c3ccc(C(F)(F)F)cc3)nc2C)CC1` [Example 27, 4-Methyl-2-(4-trifluoromethyl-phenyl)-thiazole-5-carboxylic acid {4-[4-(4-isopropyl-2-methoxy-phenyl)-piperidin-1-yl]-butyl}-amide], the melting point was 170 °C.

Compound `CCOc1cc(C)ccc1C1CCN(CCCCNC(=O)c2ccc(NC(=O)c3ccc(Cl)cc3)cc2)CC1` [Example 2, 4-(4-chloro-benzoylamino)-N-{4-[4-(2-ethoxy-4-methyl-phenyl)-piperidin-1-yl]-butyl}-benzamide] returned a melting point of 254 °C.

Turning to `COc1ccc(C2CCN(CCCCNC(=O)c3ccc(NC(=O)c4ccc(Cl)cc4)cc3)CC2)c(OC)c1.Cl`, the melting point came out at 238 °C.

As to `CCOc1cc(C)ccc1C1CCN(CCCCNS(=O)(=O)c2ccc(-c3ccc(C(F)(F)F)cc3)cc2)CC1.Cl`, the melting point fell in the range of 188 to 190 °C.

In turn, `CCOc1ccc(CC2CCN(CCCCNC(=O)c3ccc(-c4ccc(C(F)(F)F)cc4)cc3)CC2)c(OCC)c1` [Example 38, 4′-trifluoromethyl-biphenyl-4-carboxylic acid {4-[4-(2,4-diethoxy-benzyl)-piperidin-1-yl]-butyl}amide] displayed a melting point of 136 to 137 °C.

The compound `CCOc1cc(C)ccc1N(C1CCN(CCCCNC(=O)c2ccc(-c3ccc(C(F)(F)F)cc3)cc2)CC1)S(=O)(=O)c1ccccc1` [Example 20, 4′-Trifluoromethyl-biphenyl-4-carboxylic Acid (4-{4-[benzenesulfonyl-(2-ethoxy-4-methyl-phenyl)-amino]-piperidin-1-yl}butyl)-amide] displayed a melting point of 110 °C.

For the next data set, the system named is LDL-r promoter. Briefly: LDL-r promoter luciferase reporter gene assay in stably transfected HepG2 cells. The settings on record: HepG2 cells with LDL-r promoter/luciferase construct; 24 hours incubation in RPMI with 2% lipoprotein-deficient serum; induction of luciferase activity; read-out: In vitro (IC50). The data set is classed as cell-based, human. As for the experimental part:
The ability of the compounds of the invention to induce LDL-r expression by human hepatocytes in vitro is determined using a human hepatocarcinoma cell line, Hep G2, as a model system. A reporter gene assay using the LDL-R promotor in front of the Luciferase reporter gene is used as a primary screen.
HepG2 cells, stably transfected with a construct comprising the LDL-r promoter and the luciferase reporter gene, were seeded at 50.000 cells/well in 96 well plates. After 1 day, cells were incubated with compounds for 24 hours in RPMI medium containing 2% of lipoprotein-deficient serum. Compounds were tested from 10^−6M to 10^−9M. Cell lysates were prepared and the luciferase activity was measured by the luciferase assay system (Promega). Induction of luciferase activity was calculated taking untreated cells as control and ED50 of each compounds was determinated compared to the ED50 of an internal standart.
(Reporter assays use an easily measured gene product as a stand-in for the process of interest.)
As for `O=C(NCCCCN1CCC(c2ccc3c(c2OCC2CC2)CCCC3)CC1)c1ccc2oc(-c3ccc(C(F)(F)F)nc3)cc2c1` [Example 32, 2-(6-Trifluoromethyl-pyridin-3-yl)-benzofuran-5-carboxylic acid {4-[4-(1-cyclopropylmethoxy-5,6,7,8-tetrahydronaphtalen-2-yl)-piperidin-1-yl]-butyl}-amide], the EC50 was 13 nM.

As to `Cc1cc(C2CCN(CCCCNC(=O)c3ccc(-c4ccc(C(F)(F)F)cc4)cc3)CC2)c(C)cc1OCc1ccccn1` [Example 7], the EC50 was found to be 4 nM.

As to `O=C(NCCCCN1CCC(c2ccc3c(c2OCC2CC2)CCCC3)CC1)c1ccc2oc(-c3ccc(Cl)c(Cl)c3)cc2c1` [Example 31, 2-(3,4-Dichloro-phenyl)-benzofuran-5-carboxylic acid {4-[4-(1-cyclopropylmethoxy-5,6,7,8-tetrahydro-naphtalen-2-yl)-piperidin-1-yl]-butyl}-amide], the EC50 came out at 20 nM.

Turning to `COc1c(C2CCN(CCCCOc3ccc(-c4ccc(C#N)cc4)cc3)CC2)ccc2ccccc12` [Example 26, 4′-{4-[4-(1-Methoxy-naphtalen-2-yl)-piperidin-1-yl]-butoxy}-biphenyl-4-carbonitrile], the EC50 came to 1 nM.

The data set is the same for the next values; noted with them: Homo sapiens; HepG2 cells with LDL-r promoter/luciferase construct; 24 hours incubation in RPMI with 2% lipoprotein-deficient serum; induction of luciferase activity; read-out: In vitro (IC50).
Turning to `Cn1cc(C2CCN(CCCCNC(=O)c3ccc(-c4ccc(C#N)cc4)cc3)CC2)c2ccccc21` [Example 40, 4′-Cyano-biphenyl-4-carboxylic acid {4-[4-(1-methyl-1H-indol-3-yl)-piperidin-1-yl]-butyl}-amide], the EC50 was 10 nM.

With `CCOc1cc(C)ccc1C1CCN(CCCCNC(=O)c2ccc(C=Cc3ccc(C(F)(F)F)cc3)cc2)CC1` [Example 33, N-{4-[4-(2-Ethoxy-4-methyl-phenyl)-piperidin-1-yl]-butyl}-4-[2-(4-trifluoromethylphenyl)-vinyl]-benzamide], the EC50 stood at 30 nM.

As to `CCOc1cc(C)ccc1N(C1CCN(CCCCNC(=O)c2ccc(-c3ccc(C(F)(F)F)cc3)cc2)CC1)S(=O)(=O)c1ccccc1` [Example 20, 4′-Trifluoromethyl-biphenyl-4-carboxylic Acid (4-{4-[benzenesulfonyl-(2-ethoxy-4-methyl-phenyl)-amino]-piperidin-1-yl}butyl)-amide], the EC50 amounted to 117 nM.
